One may read the IC50 as the point on the concentration scale where inhibition reaches its midpoint.

“And” between values parts separate entries of the source, which are not always exact repeats. Equal values may be shown once. Where a name gives a salt, the structure may show the parent alone. Some results are limits rather than exact numbers.

Series [1] deals with MRC-5 (human lung fibroblast). The series is described as follows: Alamar blue cytotoxicity assay, 72 h, noncancerous MRC-5. In kind it is cell-based. The settings on record: MRC5, MRC-5 noncancerous cells, 72 h incubation. The procedure: (§1) The in vitro cytotoxic activities of the isolated compounds 1–9 were evaluated against the cancer cell lines HepG2 (human hepatocellular carcinoma), KG-1a (human myeloid leukemia), and HCT116 (human colon carcinoma), and the noncancerous cell line MRC-5 (human lung fibroblast) via the Alamar blue assay after 72 h of incubation.
(§2) The HepG2 (human hepatocellular carcinoma), KG-1a (human myeloid leukemia), HCT116 (human colon carcinoma), and MRC-5 (human lung fibroblast) cell lines were obtained from the American Type Culture Collection (ATCC, Manassas, VA, USA) and were cultured as recommended by the American Type Culture Collection (ATCC) animal culture guide. All the cell lines were tested for mycoplasma via a mycoplasma stain kit (Sigma-Aldrich) to validate the use of cells that were free from contamination.
(§3) For the cytotoxicity assay, cell viability was quantified via the Alamar blue method, as previously described. For all the experiments, the cells were plated in 96-well plates. The chemical constituents evaluated varied in purity between 90% and 99.8%, which was determined on the basis of the relative integrals of the signals of the constituents in relation to the signals of the impurities contained. Most of the constituents had purities greater than 95%, except for constituents 4 and 5, which had purities of approximately 90%. The chemical constituents were dissolved in dimethyl sulfoxide (DMSO, Vetec Química Fina Ltda., Duque de Caxias, RJ, Brazil), added to each well, and incubated for 72 h. […] At the end of the treatment, 20 µL of a stock solution (0.312 mg/mL) of resazurin (Sigma-Aldrich Co.) was added to each well. The absorbances at 570 nm and 600 nm were measured via a SpectraMax 190 Microplate Reader (Molecular Devices, Sunnyvale, CA, USA). The half-inhibitory concentration (IC50) was obtained via nonlinear regression with 95% confidence intervals (CIs 95%) via the software GraphPad Prism 8 (Intuitive Software for Science; San Diego, CA, USA).
In general terms: Resazurin is reduced to fluorescent resorufin, in cell work by metabolically active cells.

The test system of series [2] is HepG2 (human hepatocellular carcinoma). The series is described as follows: Alamar blue cytotoxicity assay, 72 h, HepG2. The settings on record: for IC50: Homo sapiens, HepG2, Alamar blue, 72 h incubation. In kind it is cell-based. As for the experimental part:
as §1, §2, §3

Series [3] relates to KG-1a (human myeloid leukemia). The series is described as follows: Alamar blue cytotoxicity assay, 72 h, KG-1a. It is filed as cell-based. To be noted: 72 h incubation. As for the experimental part:
as §2
as §3, with “Most of the constituents had purities greater than 95%, except for constituents 4 and 5, which had purities of approximately 90%.” left out, “The half-inhibitory concentration (IC50) was obtained via nonlinear regression with 95% confidence intervals (CIs 95%) via the software GraphPad Prism 8 (Intuitive Software for Science; San Diego, CA, USA).” left out

In series [4] the test system is HCT116 (human colon carcinoma). The series can be described thus: Alamar blue cytotoxicity assay, 72 h, HCT116. In kind it is cell-based. To be noted: for IC50: Homo sapiens, HCT-116, HCT116, Alamar blue, 72 h incubation; for Selectivity index (SI): SI = IC50 [noncancerous cells MRC-5]/IC50 [HCT116]. As for the experimental part: as §1, §2, §3
The test system of series [5] is CAOV-3 ovarian cancer cells. Details: method as in PMID 25792804. To be noted: CAOV-3 cells, mitochondrial pathway, activation of caspase-3 and caspase-9; cited from earlier work.
The test system of series [6] is human colon cancer cell lines and cancer stem cells (Wnt/β-catenin). Set-up: method as in PMID 37656375. To be noted: through the inhibition of Wnt/β-catenin; cited from earlier work.
Series [7] has as its system Akt activation in anaplastic human thyroid cancer cells. Details: method as in PMID 38139812. The settings on record: cited from earlier work.
The next series has as its system cancer cells. Set-up: method as in PMID 25065531, PMID 33290909, PMID 15540220, PMID 12951096, PMID 35597316. To be noted: cited from earlier work.
On the set-up of series [8]: method as in PMID 25065531, PMID 33290909, PMID 15540220, PMID 12951096, PMID 35597316. The settings on record: cited from earlier work.
A further series relates to HL-60 leukemia cells. Set-up: method as in ref 47 Kim et al. The settings on record: HL-60 cells, via p38 MAPK pathway; ref 47 Kim et al.; cited from earlier work.
The next series deals with human cancer cells. Set-up: method as in ref 41 = [41]; 41. Osorio D.E.J. Montoya P.G.L. Muñoz D.K. Arango A.G.J. Actividad antiplasmodial de alcaloides aporfínicos de Rollinia pittieri Y Pseudomalmea boyacana (Annonaceae) Vitae 2006 13 49 54. To be noted: cited from earlier work.
Details of series [9]: method as in ref 41 = [41]; 41. Osorio D.E.J. Montoya P.G.L. Muñoz D.K. Arango A.G.J. Actividad antiplasmodial de alcaloides aporfínicos de Rollinia pittieri Y Pseudomalmea boyacana (Annonaceae) Vitae 2006 13 49 54. To be noted: cited from earlier work.

Consider `COc1c(O)c2c3c(nccc3c1OC)C(C)(C)c1cc(O)ccc1O2` [Gouregine (9), gouregine], for which the IC50 was > 25 µg/mL and > 70.7 µM in series [1]; > 25 µg/mL and > 70.7 µM in series [2]; > 25 µg/mL and > 70.7 µM in [3].

Take `COc1c2c3c(c(OC)c1OC)-c1ccc(O)cc1C(C)(O)C3=NCC2` (stereo not drawn) [Guattouregidine (8), guattouregidine]: the IC50 in [1] is > 25 µg/mL and > 73.2 µM; in series [2] it was > 25 µg/mL and > 73.2 µM; in series [4], > 25 µg/mL and > 73.2 µM.

As to `O=C1c2ccccc2-c2c3c(cc4ccnc1c24)OCO3` [liriodenine], the apoptosis result in [5] is “caused apoptosis”.

As for `COc1c(O)c2c3c(c1OC)CCN[C@@H]3Cc1ccccc1-2` [Isopiline (1), isopiline], the IC50 in series [1] was > 25 µg/mL and > 84.1 µM; in series [4], > 25 µg/mL and > 84.1 µM.

Turning to `COc1cc2ccnc3c2c(c1OC)-c1ccccc1C3=O` [Lysicamine (6), lysicamine], the 50% inhibitory concentration (IC50) in series [1] was 17.2 µg/mL and 59.2 µM. Further, the “effect on colon cancer cell lines and cancer stem cells” value in series [6] was “suppress human colon cancer cell lines and cancer stem cells”. Besides, the “effect on Akt activation” value in [7] is “inhibit Akt activation”. Also, in series [4], the IC50 is 6.64 µg/mL and 22.8 µM; the “Selectivity index (SI)” value is recorded as 2.60.

With `COc1cccc2c1C(=O)c1c(O)c3c(c(O)c1C2=O)C[C@@](O)(C(=O)CO)C[C@@H]3O[C@H]1C[C@H](N)[C@H](O)[C@H](C)O1` [Doxorubicin, doxorubicin hydrochloride, reference compound], the IC50 in series [1] was 1.42 µg/mL and 2.61 µM; in series [2], 0.04 µg/mL and 70 nM; in [3], 0.22 µg/mL and 400 nM; in [4], 0.2 µg/mL and 360 nM. Moreover, the figures for the “Selectivity index (SI)” value in [2] (SI = IC50 [noncancerous cells MRC-5]/IC50 [HepG2]) and in [4] were 35.50 and 7.10, respectively.

For `C=C[C@@]1(C)CC=C2C(CCC3[C@](C)(C(=O)O)CCC[C@@]23C)C1` (stereo partly drawn) [Acanthoic acid (7), acanthoic acid], the IC50 in series [1] is > 25 µg/mL and > 82.7 µM; in series [2], 14.6 µg/mL and 48.4 µM; in series [4] it was 21.2 µg/mL and 70.2 µM. Further, the “cytotoxicity to cancer cells” value with cancer cells is “low cytotoxicity”. Moreover, the anti-inflammatory activity entry in series [8] was “anti-inflammatory activity”. Also, the apoptotic cell death result in the series on HL-60 leukemia cells was “causing apoptotic cell death”.

On to `COc1c2c3c(c(OC)c1OC)-c1ccc(O)cc1C(C)(C)C3=NCC2` [9-hydroxyiguattescine (4), 9-hydroxyiguattescine], for which the IC50 was > 25 µg/mL and > 70.7 µM in series [1]; > 25 µg/mL and > 70.7 µM in series [2]; > 25 µg/mL and > 70.7 µM in series [4].

`COc1c(O)c2c3c(nccc3c1OC)C(C)(C)c1cc(O)ccc1-2` [Melosmine (3), melosmine]: the IC50 in [1] was 23.7 µg/mL and 70.3 µM. Also, the “cytotoxicity to human cancer cells” value in the series with human cancer cells is recorded as “low cytotoxicity”. Besides, the antimalarial activity result in series [9] is on record as “antimalarial agent”. In series [4], the IC50 was 16.8 µg/mL and 49.7 µM; the “Selectivity index (SI)” value came out at 1.41.

`COc1c(O)c2c3c(c1OC)CCN=C3C(C)(C)c1cc(O)ccc1-2` [Dihydromelosmine (5), dihydromelosmine]: the 50% inhibitory concentration (IC50) in series [1] is > 25 µg/mL and > 73.7 µM; in [2] it was > 25 µg/mL and > 73.7 µM; in series [4] it was > 25 µg/mL and > 73.7 µM.

In the case of `COc1c2c3c(c(OC)c1OC)-c1ccccc1CC3NCC2` (stereo not drawn) [O-Methylisopiline (2), O-methylisopiline], the IC50 in series [1] is > 25 µg/mL and > 80.3 µM; in [4], > 25 µg/mL and > 80.3 µM.

The values above are taken from PMC11357160, “Gouregine, an α-Gem-Dimethyltetradehydrocularine Alkaloid, and Other Aporphinoid Alkaloids from the Bark of Guatteria olivacea (Annonaceae) and Their In Vitro Cytotoxic Activities” (Molecules, 2024).
